The structures appear in SMILES notation.

The values that follow come from patent US10785979B2, “Substituted ketoxime benzoylamides” (Bayer CropScience Aktiengesellschaft, priority 2015, dated 2020).

Assay [1] concerns different harmful plants. As to the kind of experiment: Pre-emergence comparative tests versus known compounds from WO 2013/064459 A1 (D1). Particulars: visual scoring after 3 weeks; for Herbicidal efficacy against AVEFA: Avena fatua; for Herbicidal efficacy against CYPES: Cyperus esculentus; for Herbicidal efficacy against VIOTR: Viola tricolor; for Herbicidal efficacy against STEME: Stellaria media; for Herbicidal efficacy against ECHCG: Echinochloa crus galli; for Herbicidal efficacy against POLCO: Polygonum convolvulus. It is filed as in vivo. The text has this: Seeds of monocotyledonous and dicotyledonous weed plants and crop plants are laid out in wood-fiber pots in sandy loam and covered with soil. The compounds of the invention, formulated in the form of wettable powders (WP) or as emulsion concentrates (EC), are then applied to the surface of the covering soil in the form of an aqueous suspension or emulsion at a water application rate equating to 600 to 800 I/ha, with addition of 0.2% wetting agent. After the treatment, the pots are placed in a greenhouse and kept under good growth conditions for the trial plants. The damage to the test plants is scored visually after a test period of 3 weeks by comparison with untreated controls (herbicidal activity in percent (%): 100% activity=the plants have died, 0% activity=like control plants). In this case, for example, compound Nos. 1-15, 1-71, 1-74, 2-15, 2-19, 2-67, 2-71, 2-74, 2-136, 3-15, 3-19, 4-74, 5-15, 5-67, 5-71, 5-74, 6-15, 6-19, 6-67, 6-71, 6-74, 7-15, 7-19, 7-71, 7-74, 8-1, 8-25, 9-5, 9-25, 10-5 and 12-25, at an application rate of 320 g/ha, each show at least 80% efficacy against Abutilon theophrasti and Veronica persica.
(§1) 3. Comparative Experiments
(§2) In addition, comparative tests were conducted under the conditions specified above on different harmful plants between inventive compounds and the most structurally similar known compounds from WO 2013/064459 A1 (D1). The results listed in the tables which follow show the superiority of these compounds of the invention.
(§3) The abbreviations used here mean:
Pre-Emergence Comparative Tests

For assay [2], the system named is different harmful plants. As to the kind of experiment: Post-emergence comparative tests versus known compounds from WO 2013/064459 A1 (D1). It is filed as in vivo. Particulars: visual assessment after about 3 weeks; for Herbicidal efficacy against MATIN: Matricaria inodora; for Herbicidal efficacy against VIOTR: Viola tricolor; for Herbicidal efficacy against ALOMY: Alopecurus myosuroides. As to the method: Seeds of monocotyledonous and dicotyledonous weed and crop plants are laid out in sandy loam soil in wood-fiber pots, covered with soil and cultivated in a greenhouse under good growth conditions. 2 to 3 weeks after sowing, the test plants are treated at the one-leaf stage. The compounds of the invention, formulated in the form of wettable powders (WP) or as emulsion concentrates (EC), are then sprayed onto the green parts of the plants in the form of an aqueous suspension or emulsion at a water application rate equating to 600 to 800 I/ha, with addition of 0.2% wetting agent. After the test plants have been left to stand in the greenhouse under optimal growth conditions for about 3 weeks, the action of the preparations is assessed visually in comparison to untreated controls (herbicidal action in percent (%): 100% activity=the plants have died, 0% activity=like control plants). In this case, for example, compound Nos. 1-15, 1-71, 1-74, 2-15, 2-19, 2-67, 2-71, 2-74, 2-136, 3-15, 3-19, 4-19, 4-136, 5-15, 7-15, 7-19, 7-74, 8-1, 8-25, 8-26, 9-5, 9-25, 10-5 and 10-5, at an application rate of 80 g/ha, each show at least 80% efficacy against Abutilon theophrasti and Veronica persica.
as §1, §2, §3
Post-Emergence Comparative Tests

As to `CCON=C(C)c1c(Cl)ccc(C(=O)Nc2nnnn2C)c1Cl` (single isomer, unassigned) [1-5], in the assay with different harmful plants [1] (320 g a.i./ha), the “Herbicidal efficacy against AVEFA” value was 90%, the “Herbicidal efficacy against CYPES” value stood at 90% and the “Herbicidal efficacy against VIOTR” value is recorded as 100%. Also, in the assay with different harmful plants [2] (20 g a.i./ha), the “Herbicidal efficacy against MATIN” value is 90% and the “Herbicidal efficacy against VIOTR” value worked out at 90%.
As for `CC(=NOCC1CC1)c1c(Cl)ccc(C(=O)Nc2nnnn2C)c1Cl` (single isomer, unassigned) [1-8], in the assay on different harmful plants [1] (320 g a.i./ha), the “Herbicidal efficacy against AVEFA” value stood at 90%, the “Herbicidal efficacy against STEME” value came out at 100% and the “Herbicidal efficacy against VIOTR” value is on record as 100%. For the same compound, in the assay with different harmful plants [2] (80 g a.i./ha), the “Herbicidal efficacy against ALOMY” value was determined as 70% and the “Herbicidal efficacy against MATIN” value is recorded as 100%.
Consider `CCn1nnnc1NC(=O)c1ccc(Cl)c(C(C)=NOC)c1Cl` (single isomer, unassigned) [2-1], for which, in the assay on different harmful plants [1] (320 g a.i./ha), the “Herbicidal efficacy against AVEFA” value worked out at 100%, the “Herbicidal efficacy against CYPES” value was found to be 100% and the “Herbicidal efficacy against VIOTR” value turned out to be 100%. Besides, in the assay on different harmful plants [2] (80 g a.i./ha), the “Herbicidal efficacy against ALOMY” value is 60% and the “Herbicidal efficacy against VIOTR” value is recorded as 100%.
Regarding `CCCn1nnnc1NC(=O)c1ccc(Cl)c(C(C)=NOC)c1Cl` (single isomer, unassigned) [3-1], in the assay with different harmful plants [1] (320 g a.i./ha), the “Herbicidal efficacy against AVEFA” value was 80%, the “Herbicidal efficacy against CYPES” value is 100% and the “Herbicidal efficacy against VIOTR” value turned out to be 100%. Also, in the assay with different harmful plants [2] (20 g a.i./ha), the “Herbicidal efficacy against MATIN” value was determined as 80% and the “Herbicidal efficacy against VIOTR” value is listed as 100%.
Turning to `CCCn1nnnc1NC(=O)c1ccc(Cl)c(C(C)=NOCC)c1Cl` (single isomer, unassigned) [3-5], in the assay on different harmful plants [1] (320 g a.i./ha), the “Herbicidal efficacy against AVEFA” value turned out to be 70%, the “Herbicidal efficacy against STEME” value is listed as 100% and the “Herbicidal efficacy against VIOTR” value was determined as 100%. In the assay on different harmful plants [2] (80 g a.i./ha), the “Herbicidal efficacy against MATIN” value is listed as 90% and the “Herbicidal efficacy against VIOTR” value amounted to 100%.
As to `CCCn1nnnc1NC(=O)c1ccc(Cl)c(C(C)=NOCC2CC2)c1Cl` (single isomer, unassigned) [3-8], in the assay with different harmful plants [2] (80 g a.i./ha), the “Herbicidal efficacy against MATIN” value came to 70% and the “Herbicidal efficacy against VIOTR” value is on record as 80%.
Turning to `CCCn1nnnc1NC(=O)c1ccc(S(C)(=O)=O)c(C(C)=NOC)c1Cl` (single isomer, unassigned) [3-15], in the assay with different harmful plants [2] (20 g a.i./ha), the “Herbicidal efficacy against MATIN” value is recorded as 90% and the “Herbicidal efficacy against VIOTR” value is on record as 90%.
As for `CCCn1nnnc1NC(=O)c1ccc(S(C)(=O)=O)c(C(C)=NOCC)c1Cl` (single isomer, unassigned) [3-19], in the assay on different harmful plants [1] (80 g a.i./ha), the “Herbicidal efficacy against CYPES” value turned out to be 80%, the “Herbicidal efficacy against ECHCG” value was 90% and the “Herbicidal efficacy against VIOTR” value was 100%. Besides, in the assay on different harmful plants [2] (80 g a.i./ha), the “Herbicidal efficacy against ALOMY” value worked out at 50% and the “Herbicidal efficacy against VIOTR” value is listed as 100%.
As for `CCON=C(C)c1c(Cl)ccc(C(=O)Nc2ncnn2C)c1Cl` (single isomer, unassigned) [4-5], in the assay with different harmful plants [1] (320 g a.i./ha), the “Herbicidal efficacy against ECHCG” value is 90%, the “Herbicidal efficacy against STEME” value stood at 80% and the “Herbicidal efficacy against VIOTR” value turned out to be 100%. In the assay on different harmful plants [2] (80 g a.i./ha), the “Herbicidal efficacy against ALOMY” value was determined as 30% and the “Herbicidal efficacy against VIOTR” value came to 90%.
In the case of `CCON=C(C)c1c(S(C)(=O)=O)ccc(C(=O)Nc2ncnn2C)c1Cl` (single isomer, unassigned) [4-19], in the assay on different harmful plants [2] (20 g a.i./ha), the “Herbicidal efficacy against ALOMY” value was 80% and the “Herbicidal efficacy against VIOTR” value is reported as 100%.
In the case of `CON=C(C)c1c(Cl)ccc(C(=O)Nc2nonc2C)c1Cl` (single isomer, unassigned) [6-1], in the assay with different harmful plants [1] (320 g a.i./ha), the “Herbicidal efficacy against ECHCG” value is 60%, the “Herbicidal efficacy against POLCO” value was determined as 40% and the “Herbicidal efficacy against STEME” value was 60%.
Turning to `CON=C(C)c1c(S(C)(=O)=O)ccc(C(=O)Nc2nonc2C)c1Cl` (single isomer, unassigned) [6-15], in the assay with different harmful plants [2] (80 g a.i./ha), the “Herbicidal efficacy against MATIN” value is on record as 80% and the “Herbicidal efficacy against VIOTR” value was determined as 100%.
On to `CCON=C(C)c1c(S(C)(=O)=O)ccc(C(=O)Nc2nonc2C)c1Cl` (single isomer, unassigned) [6-19], for which, in the assay with different harmful plants [1] (320 g a.i./ha), the “Herbicidal efficacy against AVEFA” value is recorded as 30%, the “Herbicidal efficacy against CYPES” value is listed as 80% and the “Herbicidal efficacy against VIOTR” value came out at 100%. For the same compound, in the assay with different harmful plants [2] (80 g a.i./ha), the “Herbicidal efficacy against MATIN” value is given as 70% and the “Herbicidal efficacy against VIOTR” value is reported as 100%.
Consider `CCCn1nnnc1NC(=O)c1ccc(S(C)(=O)=O)c(C(C)=NOC)c1Cl` (single isomer, unassigned) [10-5], for which, in the assay with different harmful plants [2] (80 g a.i./ha), the “Herbicidal efficacy against ALOMY” value amounted to 60% and the “Herbicidal efficacy against MATIN” value is given as 100%.
As to `CCCn1nnnc1NC(=O)c1ccc(S(C)(=O)=O)c(C(C)=NOCC)c1Cl` (single isomer, unassigned) [10-6], in the assay with different harmful plants [1] (320 g a.i./ha), the “Herbicidal efficacy against AVEFA” value was determined as 40%, the “Herbicidal efficacy against POLCO” value is recorded as 60% and the “Herbicidal efficacy against VIOTR” value turned out to be 100%. In addition, in the assay on different harmful plants [2] (20 g a.i./ha), the “Herbicidal efficacy against MATIN” value is 90% and the “Herbicidal efficacy against VIOTR” value is on record as 100%.
As for `CON=C(C)c1c(S(C)(=O)=O)ccc(C(=O)Nc2nonc2C)c1Cl` (single isomer, unassigned) [13-5], in the assay on different harmful plants [2] (80 g a.i./ha), the “Herbicidal efficacy against MATIN” value is recorded as 60% and the “Herbicidal efficacy against VIOTR” value turned out to be 90%.
As for `CCON=C(C)c1c(S(C)(=O)=O)ccc(C(=O)Nc2nonc2C)c1Cl` (single isomer, unassigned) [13-6], in the assay with different harmful plants [1] (320 g a.i./ha), the “Herbicidal efficacy against AVEFA” value worked out at 60%, the “Herbicidal efficacy against CYPES” value is reported as 60% and the “Herbicidal efficacy against VIOTR” value stood at 100%. In the assay with different harmful plants [2] (80 g a.i./ha), the “Herbicidal efficacy against MATIN” value amounted to 60% and the “Herbicidal efficacy against VIOTR” value came out at 100%.
